Source: publication PMC4826283 (Journal of nuclear medicine : official publication, Society …, 2014)

System: kappa opioid receptor (KOR)
Assay: in vivo PET receptor occupancy
Assay type: cell-based, Macaca mulatta
Conditions: rhesus monkey, brain

With Cc1cc(C)cc([C@@H]2CCCN2Cc2ccc(Oc3ccc(C(N)=O)cc3F)cc2)c1 [LY2456302] the “% occupancy at 0.3 mg/kg” value was 93 % occupancy at 0.3 mg/kg.
